Data: patent US20090155209A1, “NOVEL MACROCYCLIC INHIBITORS OF HEPATITIS C VIRUS REPLICATION” (priority 2007, published 2009)

Key:
[1] = Single ascending dose study, fasted and fed: safety and non-compartmental plasma PK; format: in vivo, healthy volunteers (human); conditions: single dose, healthy volunteers
Procedure: A single ascending dose (SAD) study of the compound 100 was conducted in healthy volunteers. The compound 100 was administered as monotherapy both with and without food. The safety and pharmacokinetic profile of the single dose of the compound 100 was assessed.
Interim, blinded data were used for Pharmacokinetic (PK) study relating to food effects. With the exception of the 400 mg cohort, eight subjects were studied at each dose (single doses of 100, 200, or 800 mg of the sodium salt of the compound 100, which may be referred to herein as ITMN-191, administered in the fasting state). In the 400 mg cohort, ten subjects received single 400 mg doses of ITMN-191 under both fasted and fed conditions with a 5-day washout period between dosing. In the 100 mg cohort, subjects were sampled within 1 hour before dosing and at 0.5, 1, 1.5, 2, 2.5, 3, 4, 6, 8, 12, 18, 24, 32 and 48 hours after dosing. For subsequent cohorts, subjects were sampled within 1 hour before dosing and at 0.25, 0.5, 1, 1.5, 2, 2.5, 3, 4, 6, 8, 12, 18, 24, and 32 hours after dosing. Nominal (not actual) sampling times were used for the analysis. PK samples were analyzed using liquid chromatography-tandem mass spectrometry (LC/MS/MS with API 4000 mass spectrometer) following solid-phase extraction. The upper and lower limits of quantitation (ULOQ and LLOQ) are 100 and 0.01 ng/mL, respectively.
Pharmacokinetic parameter estimates were calculated using non-compartmental methods (implemented using Microsoft Excel®). Half-lives were determined by visual inspection of the log concentration-time plots to choose the terminal phase (minimum of three detectable observations). Using linear regression of the chosen terminal phase observations, elimination rate constants were calculated as the negative slope of the regression line and half-life as the natural log of 2 divided by the elimination rate constant.
Ten subjects received single 1600 mg doses of ITMN-191 under both fasted and fed conditions with a 5-day washout period between dosing. For each condition, subjects were sampled within 1 hour before dosing and at 0.25, 0.5, 1, 1.5, 2, 2.5, 3, 4, 6, 8, 12, 18, 24, and 32 hours after dosing. Pharmacokinetic parameter estimates were calculated using non-compartmental methods. Half-life (t1/2) was determined by visual inspection of the log concentration-time plots to choose the terminal phase (minimum of three detectable observations). Using linear regression of the chosen terminal phase observations, elimination rate constants were calculated as the negative slope and half-life as the natural log of 2 divided by the elimination rate constant.

NS3-NS4 [2] = biological target: T1, NS3-NS4 (Hepatitis C virus genotype 1a, UniProt P27958); assay: NS3-NS4 activity, IC50 (Example 37, Table 8); format: biochemical
T1 sequence (P27958 1027-1657): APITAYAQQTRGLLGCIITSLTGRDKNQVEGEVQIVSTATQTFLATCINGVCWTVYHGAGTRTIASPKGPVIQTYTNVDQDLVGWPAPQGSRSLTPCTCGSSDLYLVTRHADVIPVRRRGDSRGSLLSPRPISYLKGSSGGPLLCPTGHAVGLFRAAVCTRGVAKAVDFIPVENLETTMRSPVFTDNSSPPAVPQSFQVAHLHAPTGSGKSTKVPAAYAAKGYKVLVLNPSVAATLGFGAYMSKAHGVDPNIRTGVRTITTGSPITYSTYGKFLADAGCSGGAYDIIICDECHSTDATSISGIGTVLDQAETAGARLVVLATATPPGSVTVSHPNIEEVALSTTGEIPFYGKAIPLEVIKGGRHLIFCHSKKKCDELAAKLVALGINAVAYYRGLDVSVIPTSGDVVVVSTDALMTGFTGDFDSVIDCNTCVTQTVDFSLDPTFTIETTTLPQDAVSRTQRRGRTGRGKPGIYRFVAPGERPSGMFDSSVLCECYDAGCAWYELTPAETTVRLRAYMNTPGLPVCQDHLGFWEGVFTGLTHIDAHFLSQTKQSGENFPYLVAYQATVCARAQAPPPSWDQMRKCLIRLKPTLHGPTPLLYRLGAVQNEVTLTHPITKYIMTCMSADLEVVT
T1 sequence (P27958 1658-1711): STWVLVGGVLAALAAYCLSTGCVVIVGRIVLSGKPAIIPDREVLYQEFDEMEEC

NS3-NS4 [3] = biological target: T1, NS3-NS4; assay: cell-based; conditions: EC50, NS3-NS4 activity

Compound | tolerability ([1]; all doses) | exposure when administered with food, compared to without food [1] | IC50 (NS3-NS4 [2]) [nM] | EC50 (NS3-NS4 [3]) [nM]
CC(C)(C)OC(=O)N[C@H]1CCCCC/C=C\[C@@H]2C[C@@]2(C(=O)NS(=O)(=O)C2CC2)NC(=O)[C@@H]2C[C@@H](OC(=O)N3Cc4cccc(F)c4C3)CN2C1=O [compound 100] | well tolerated | higher than anticipated exposure |  | 
O=C1N[C@]2(C(=O)NS(=O)(=O)C3CC3)C[C@H]2/C=C\CCCCC[C@H](Nc2nc(-c3cccc(C(F)(F)F)c3)cs2)C(=O)N2C[C@H](OC(=O)N3Cc4cccc(F)c4C3)C[C@@H]12 [Compound 218] |  |  | < 100 | < 100
CC(C)(C)OC(=O)N[C@H]1CCCCCCC[C@@H]2C[C@@]2(C(=O)NOCC2CC2)NC(=O)[C@@H]2C[C@@H](OC(=O)N3Cc4cccc(F)c4C3)CN2C1=O [Compound 813] |  |  | < 100 | < 100
CC(C)(C)OC(=O)N[C@H]1CCCCC/C=C\[C@@H]2C[C@@]2(C(=O)NS(=O)(=O)Cc2cccc(C(F)(F)F)c2)NC(=O)[C@@H]2C[C@@H](OC(=O)N3Cc4cccc(F)c4C3)CN2C1=O [Compound 518] |  |  | < 100 | 100 to 1000
CC(C)(C)OC(=O)N[C@H]1CCCCC/C=C\[C@@H]2C[C@@]2(C(=O)NS(=O)(=O)c2c(Cl)cccc2Cl)NC(=O)[C@@H]2C[C@@H](OC(=O)N3Cc4cccc(F)c4C3)CN2C1=O [Compound 311] |  |  | < 100 | 100 to 1000
O=C(N[C@H]1CCCCC/C=C\[C@@H]2C[C@@]2(C(=O)NS(=O)(=O)C2CC2)NC(=O)[C@@H]2C[C@@H](OC(=O)N3Cc4cccc(F)c4C3)CN2C1=O)OC1CCC1 [Compound 427] |  |  | < 100 | < 100
Cc1ccccc1S(=O)(=O)NC(=O)[C@@]12C[C@H]1/C=C\CCOCC[C@H](NC(=O)OC(C)(C)C)C(=O)N1C[C@H](OC(=O)N3Cc4cccc(Cl)c4C3)C[C@H]1C(=O)N2 [Compound 321, (2R,6S,13aS,14aR,16aSZ)-6-(tert-butoxycarbonylamino)-5,16-dioxo-14a-(o-tolylsulfonylcarbamoyl)-2,3,5,6,7,8,10,11,13a,14,14a,15,16,16a-tetradecahydro-1H-cyclopropa[j]pyrrolo[1,2-f][1,6,9]oxadiazacyclopentadecin-2-yl 4-chloroisoindoline-2-carboxylate] |  |  | < 100 | < 100
CC(C)(C)OC(=O)N[C@H]1CCCCC/C=C\[C@@H]2C[C@@]2(C(=O)NS(=O)(=O)Cc2cc(Cl)ccc2Cl)NC(=O)[C@@H]2C[C@@H](OC(=O)N3Cc4cccc(F)c4C3)CN2C1=O [Compound 525] |  |  | < 100 | 100 to 1000
CC(=O)O[C@@H]1C[C@H]2C(=O)N[C@]3(C(=O)NS(=O)(=O)C4CC4)C[C@H]3/C=C\CCCCC[C@H](Nc3ncc(-c4ccccc4)s3)C(=O)N2C1 [Compound 203, (2R,6S,13aS,14aR,16aS,Z)-14a-(cyclopropylsulfonylcarbamoyl)-5,16-dioxo-6-(5-phenylthiazol-2-ylamino)-1,2,3,5,6,7,8,9,10,11,13a,14,14a,15,16,16a-hexadecahydrocyclopropa[e]pyrrolo[1,2-a][1,4]diazacyclopentadecin-2-yl acetate] |  |  | < 100 | 1000 to 10000
O=C(N[C@H]1CCCCC/C=C\[C@@H]2C[C@@]2(C(=O)NS(=O)(=O)C2CC2)NC(=O)[C@@H]2C[C@@H](OC(=O)N3Cc4cccc(F)c4C3)CN2C1=O)OC(C1CC1)C1CC1 [Compound 428] |  |  | < 100 | 100 to 1000
CC(C)(C)OC(=O)N[C@H]1CCCCCCC[C@@H]2C[C@@]2(C(=O)NS(=O)(=O)c2cc3ccccc3o2)NC(=O)[C@@H]2C[C@@H](OC(=O)N3Cc4cccc(F)c4C3)CN2C1=O [Compound 648] |  |  | < 100 | 100 to 1000
CC(C)(C)OC(=O)N[C@H]1CCCCCCC[C@@H]2C[C@@]2(C(=O)NS(=O)(=O)c2ccccc2Cl)NC(=O)[C@@H]2C[C@@H](OC(=O)N3Cc4cccc(F)c4C3)CN2C1=O [Compound 603] |  |  | < 100 | < 100
Cc1ccccc1S(=O)(=O)NC(=O)[C@@]12C[C@H]1CCCCCCC[C@H](NC(=O)OC(C)(C)C)C(=O)N1C[C@H](OC(=O)N3Cc4cccc(F)c4C3)C[C@H]1C(=O)N2 [Compound 602] |  |  | < 100 | < 100
CCC1(S(=O)(=O)NC(=O)[C@@]23C[C@H]2CCCCCCC[C@H](NC(=O)OC(C)(C)C)C(=O)N2C[C@H](OC(=O)N4Cc5cccc(F)c5C4)C[C@H]2C(=O)N3)CC1 [Compound 650] |  |  | < 100 | < 100
CN(C(=O)N[C@H]1CCCCC/C=C\[C@@H]2C[C@@]2(C(=O)NS(=O)(=O)C2(C)CC2)NC(=O)[C@@H]2C[C@@H](OC(=O)N3Cc4cccc(Cl)c4C3)CN2C1=O)C(C)(C)C [Compound 441] |  |  | < 100 | < 100
Cc1ccc(CS(=O)(=O)NC(=O)[C@@]23C[C@H]2/C=C\CCCCC[C@H](NC(=O)OC(C)(C)C)C(=O)N2C[C@H](OC(=O)N4Cc5cccc(F)c5C4)C[C@H]2C(=O)N3)cc1 [Compound 515] |  |  | < 100 | < 100
O=C(N[C@H]1CCCCC/C=C\[C@@H]2C[C@@]2(C(=O)NS(=O)(=O)C2CC2)NC(=O)[C@@H]2C[C@@H](OC(=O)N3Cc4cccc(F)c4C3)CN2C1=O)c1ccc(Cl)cc1 [Compound 413] |  |  | < 100 | < 100
